Measured values reported in patent US10918645B2 (LIFEARC, priority 2016, dated 2021).

What was measured:
Conditions in all cases: 1 μM inhibitor concentration
PAK4 = PAK4 (Homo sapiens (Human), UniProt O96013); test: PAK4 kinase selectivity assay; type: biochemical
Experimental: (§1) PAK4 (5-20 mU diluted in 50 mM Tris pH 7.5, 0.1 mM EGTA, 0.1% b-mercaptoethanol, 1 mg/ml BSA) is assayed against a substrate peptide ([…]) in a final volume of 25.5 μl containing 50 mM Tris pH 7.5, 0.05% b-mercaptoethanol, 300 μM substrate peptide, 10 mM magnesium acetate and 0.005 mM [33P-g-ATP] (50-1000 cpm/pmole) and incubated for 30 min at room temperature. Assays are stopped by addition of 5 μl of 0.5 M (3%) orthophosphoric acid and then harvested onto P81 Unifilter plates with a wash buffer of 50 mM orthophosphoric acid.

CAMKKb = CAMKKb (Homo sapiens (Human), UniProt Q96RR4); test: CAMKKb kinase selectivity assay; type: biochemical
Experimental: 5-20 mU of CAMKKb (diluted in 50 mM Tris (pH 7.5), 0.1 mM EGTA, 1 mg/ml BSA, 0.1%, b-Mercaptoethanol) is assayed against substrate peptide ([…]) in a final volume of 25.5 μl containing 50 mM Tris (pH 7.5), 0.1 mM EGTA, 0.5 mM CaCl2, 0.3 μM calmodulin, 0.1%, b-Mercaptoethanol, 300 μM substrate peptide, 10 mM magnesium acetate and 0.02 mM [33P-g-ATP](500-1000 cpm/pmole) and incubated for 30 mins at room temperature. Assays are stopped by addition of 5 μl of 0.5M (3%) orthophosphoric acid. Assays are harvested onto P81 Unifilter plates using a wash buffer of 50 mM orthophosphoric acid.

MST4 = MST4 (Homo sapiens (Human), UniProt Q9P289); test: MST4 kinase selectivity assay; type: biochemical
Experimental: 5-20 mU of MST4 (diluted in 50 mM Tris (pH 7.5), 0.1 mM EGTA) is assayed against MBP in a final volume of […] containing 50 mM Tris (pH 7.5), 0.1 mM EGTA, 0.33 mg/ml MBP, 10 mM magnesium acetate and 0.02 mM [33P-g-ATP](500-1000 cpm/pmole) and incubated for 30 mins at room temperature. Assays are stopped by addition of […] of 0.5M (3%) orthophosphoric acid. Assays are harvested onto P81 Unifilter plates using a wash buffer of 50 mM orthophosphoric acid.

PKBb = PKBb (Homo sapiens (Human), UniProt P31751, S474D); test: PKBb kinase selectivity assay; type: biochemical
Experimental: as §1, with “ΔPH-PKBbeta-S474D (5-20” for “PAK4 (5-20”, “a modified Crosstide” for “a substrate”, “b-mercaptoethanol, 30” for “b-mercaptoethanol, 300”, “and 0.05” for “and 0.005”, “mM [33P-g-ATP](50-1000” for “mM [33P-g-ATP] (50-1000”

AMPK(hum) = test: AMPK kinase selectivity assay; type: biochemical, human
Experimental: AMPK (5-20 mU diluted in 50 mM Hepes pH 7.5, 1 mM DTT, 0.02% Brij35) is assayed against SAMS substrate peptide ([…]) in a final volume of 25.5 μl containing 50 mM Hepes pH 7.5, 1 mM DTT, 0.02% Brij35, 0.4 mM SAMS peptide, 0.196 mM AMP, 10 mM magnesium acetate and 0.05 mM [33P-g-ATP] (50-1000 cpm/pmole) and incubated for 30 min at room temperature. Assays are stopped by addition of 5 μl of 0.5 M (3%) orthophosphoric acid and then harvested onto P81 Unifilter plates with a wash buffer of 50 mM orthophosphoric acid.

MST2 = MST2 (Homo sapiens (Human), UniProt Q13188); test: MST2 kinase selectivity assay; type: biochemical
Experimental: MST2 (5-20 mU diluted in 50 mM Tris pH 7.5, 0.1 mM EGTA, 0.1% b-mercaptoethanol, 100 µM Vanadate) is assayed against MBP in a final volume of 25.5 μl containing 50 mM Tris pH 7.5, 0.05% b-mercaptoethanol, 0.33 mg/ml MBP, 10 mM magnesium acetate and 0.02 mM [33P-g-ATP] (50-1000 cpm/pmole) and incubated for 30 min at room temperature. Assays are stopped by addition of 5 μl of 0.5 M (3%) orthophosphoric acid and then harvested onto P81 Unifilter plates with a wash buffer of 50 mM orthophosphoric acid.

TBK1 = TBK1 (Homo sapiens (Human), UniProt Q9UHD2); test: TBK1 kinase selectivity assay; type: biochemical
Experimental: as §1, with “TBK1 (DU12569)” for “PAK4”, “EGTA,” for “EGTA, 0.1% b-mercaptoethanol,”, “7.5,” for “7.5, 0.05% b-mercaptoethanol,”, “0.05” for “0.005”

PKCz = PKCz (Homo sapiens (Human), UniProt Q05513); test: PKCz kinase selectivity assay; type: biochemical
Experimental: as §1, with “PKC zeta (5-20 mU” for “PAK4 (5-20 mU”, “1 mg/ml BSA, 100 μM Vanadate) is assayed” for “1 mg/ml BSA) is assayed”, “0.05% b-mercaptoethanol, […], 300 μM” for “0.05% b-mercaptoethanol, 300 μM”

TTK = TTK (Homo sapiens (Human), UniProt P33981); test: TTK kinase selectivity assay; type: biochemical
Experimental: TTK (5-20 mU diluted in 50 mM Tris pH 7.5, 0.1 mM EGTA, 0.1% 0-mercaptoethanol, 1 mg/ml BSA) is assayed against […] in a final volume of […] containing 50 mM Tris pH 7.5, 0.1 mM EGTA, 0.3 mM […], 10 mM magnesium acetate and 0.02 mM [33P-γ-ATP] (50-1000 cpm/pmole) and incubated for 30 min at room temperature. Assays are stopped by addition of 5 μl of 0.5 M (3%) orthophosphoric acid and then harvested onto P81 Unifilter plates with a wash buffer of 50 mM orthophosphoric acid.

Sequence of MST4 (Q9P289 whole entry, species assumed): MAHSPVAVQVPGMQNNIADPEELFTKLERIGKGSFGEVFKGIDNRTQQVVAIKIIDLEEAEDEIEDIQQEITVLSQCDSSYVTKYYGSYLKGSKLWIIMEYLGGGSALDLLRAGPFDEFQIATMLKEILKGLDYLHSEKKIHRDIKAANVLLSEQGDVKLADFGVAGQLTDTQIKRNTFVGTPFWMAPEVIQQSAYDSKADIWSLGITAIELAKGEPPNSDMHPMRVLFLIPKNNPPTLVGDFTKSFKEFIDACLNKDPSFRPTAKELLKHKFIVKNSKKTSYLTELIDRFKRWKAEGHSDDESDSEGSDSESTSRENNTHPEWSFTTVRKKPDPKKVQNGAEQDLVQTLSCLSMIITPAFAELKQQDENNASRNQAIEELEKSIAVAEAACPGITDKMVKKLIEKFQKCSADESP
Sequence of TTK (P33981 whole entry, species assumed): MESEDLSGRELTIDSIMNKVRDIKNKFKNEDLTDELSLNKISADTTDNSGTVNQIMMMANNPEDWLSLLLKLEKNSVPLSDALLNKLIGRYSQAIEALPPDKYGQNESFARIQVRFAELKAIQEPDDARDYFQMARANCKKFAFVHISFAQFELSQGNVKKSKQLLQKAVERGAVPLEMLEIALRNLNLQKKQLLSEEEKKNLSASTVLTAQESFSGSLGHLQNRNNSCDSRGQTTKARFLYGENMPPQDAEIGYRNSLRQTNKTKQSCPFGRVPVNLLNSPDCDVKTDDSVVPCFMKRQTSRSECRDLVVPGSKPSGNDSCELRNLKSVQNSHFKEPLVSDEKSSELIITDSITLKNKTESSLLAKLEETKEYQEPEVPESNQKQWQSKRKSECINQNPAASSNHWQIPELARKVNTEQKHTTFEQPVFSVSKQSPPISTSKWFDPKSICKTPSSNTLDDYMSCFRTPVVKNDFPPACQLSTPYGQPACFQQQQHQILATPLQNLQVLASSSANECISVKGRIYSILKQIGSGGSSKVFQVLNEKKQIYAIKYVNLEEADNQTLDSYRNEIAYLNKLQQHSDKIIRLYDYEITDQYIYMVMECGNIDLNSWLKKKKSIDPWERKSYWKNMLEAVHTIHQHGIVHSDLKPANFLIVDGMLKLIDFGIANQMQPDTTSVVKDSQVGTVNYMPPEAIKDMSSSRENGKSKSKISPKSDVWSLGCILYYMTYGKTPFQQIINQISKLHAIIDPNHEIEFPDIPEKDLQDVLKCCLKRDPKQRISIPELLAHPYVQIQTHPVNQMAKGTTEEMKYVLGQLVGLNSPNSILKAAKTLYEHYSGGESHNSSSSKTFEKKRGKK
Sequence of PKBb (P31751 120-481 S474D): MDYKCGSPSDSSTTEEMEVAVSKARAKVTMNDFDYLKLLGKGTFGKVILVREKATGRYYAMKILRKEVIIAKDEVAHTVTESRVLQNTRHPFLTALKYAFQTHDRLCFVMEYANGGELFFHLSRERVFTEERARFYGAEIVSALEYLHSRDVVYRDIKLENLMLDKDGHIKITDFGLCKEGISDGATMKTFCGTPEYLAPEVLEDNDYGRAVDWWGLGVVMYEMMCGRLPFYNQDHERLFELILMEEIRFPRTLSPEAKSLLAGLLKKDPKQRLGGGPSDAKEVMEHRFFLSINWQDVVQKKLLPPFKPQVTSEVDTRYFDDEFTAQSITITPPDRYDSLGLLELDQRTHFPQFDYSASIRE
Sequence of PKCz (Q05513 whole entry): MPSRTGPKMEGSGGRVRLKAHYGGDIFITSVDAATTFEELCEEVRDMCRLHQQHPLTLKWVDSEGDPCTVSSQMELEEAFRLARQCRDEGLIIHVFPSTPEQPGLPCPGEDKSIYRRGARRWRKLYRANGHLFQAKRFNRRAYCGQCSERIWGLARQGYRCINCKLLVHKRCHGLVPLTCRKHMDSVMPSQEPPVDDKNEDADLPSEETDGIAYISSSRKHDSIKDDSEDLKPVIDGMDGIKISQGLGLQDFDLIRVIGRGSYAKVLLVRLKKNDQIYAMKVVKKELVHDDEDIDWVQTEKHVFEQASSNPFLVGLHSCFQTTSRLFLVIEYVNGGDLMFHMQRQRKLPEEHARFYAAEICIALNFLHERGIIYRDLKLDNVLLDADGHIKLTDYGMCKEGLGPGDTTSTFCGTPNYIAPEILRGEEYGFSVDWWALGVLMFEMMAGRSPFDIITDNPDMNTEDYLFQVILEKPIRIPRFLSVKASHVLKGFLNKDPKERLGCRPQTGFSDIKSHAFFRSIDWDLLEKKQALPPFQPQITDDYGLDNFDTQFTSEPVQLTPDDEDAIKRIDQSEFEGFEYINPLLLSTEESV
Sequence of TBK1 (Q9UHD2 whole entry, species assumed): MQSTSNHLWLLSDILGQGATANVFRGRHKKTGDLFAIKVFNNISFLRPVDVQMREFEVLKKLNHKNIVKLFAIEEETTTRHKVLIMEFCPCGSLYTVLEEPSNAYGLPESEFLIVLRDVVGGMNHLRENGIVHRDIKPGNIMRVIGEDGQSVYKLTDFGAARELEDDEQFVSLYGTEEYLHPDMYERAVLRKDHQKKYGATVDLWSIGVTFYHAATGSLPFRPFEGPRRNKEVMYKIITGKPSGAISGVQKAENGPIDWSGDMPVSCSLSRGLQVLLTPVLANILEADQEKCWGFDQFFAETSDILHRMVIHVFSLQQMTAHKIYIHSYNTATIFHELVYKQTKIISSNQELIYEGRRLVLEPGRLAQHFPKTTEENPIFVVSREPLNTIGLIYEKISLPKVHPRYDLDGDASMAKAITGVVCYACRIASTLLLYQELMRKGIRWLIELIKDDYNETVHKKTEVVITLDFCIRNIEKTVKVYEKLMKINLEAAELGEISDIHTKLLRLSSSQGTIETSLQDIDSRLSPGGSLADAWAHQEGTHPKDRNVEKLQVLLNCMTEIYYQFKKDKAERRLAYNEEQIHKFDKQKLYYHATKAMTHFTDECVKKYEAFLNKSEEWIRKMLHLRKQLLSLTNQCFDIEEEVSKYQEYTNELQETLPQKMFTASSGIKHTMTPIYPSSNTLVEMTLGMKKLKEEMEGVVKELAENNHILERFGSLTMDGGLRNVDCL
Sequence of PAK4 (O96013 whole entry, species assumed): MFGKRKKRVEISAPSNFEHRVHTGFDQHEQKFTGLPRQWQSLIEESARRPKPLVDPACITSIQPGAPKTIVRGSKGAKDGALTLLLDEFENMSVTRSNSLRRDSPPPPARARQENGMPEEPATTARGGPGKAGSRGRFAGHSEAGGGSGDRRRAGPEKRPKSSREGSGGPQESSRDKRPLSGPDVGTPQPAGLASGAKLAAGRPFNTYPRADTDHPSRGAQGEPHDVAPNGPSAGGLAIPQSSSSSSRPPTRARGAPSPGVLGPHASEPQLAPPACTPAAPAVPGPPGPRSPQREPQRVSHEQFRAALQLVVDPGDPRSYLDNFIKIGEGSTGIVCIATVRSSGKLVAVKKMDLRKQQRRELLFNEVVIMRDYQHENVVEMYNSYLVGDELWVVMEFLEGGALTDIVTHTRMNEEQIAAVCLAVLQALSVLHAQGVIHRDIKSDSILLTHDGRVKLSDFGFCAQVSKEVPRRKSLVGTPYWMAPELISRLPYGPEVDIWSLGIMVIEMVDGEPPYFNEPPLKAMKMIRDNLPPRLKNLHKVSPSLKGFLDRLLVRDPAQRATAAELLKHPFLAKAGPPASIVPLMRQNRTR
Sequence of MST2 (Q13188 whole entry, species assumed): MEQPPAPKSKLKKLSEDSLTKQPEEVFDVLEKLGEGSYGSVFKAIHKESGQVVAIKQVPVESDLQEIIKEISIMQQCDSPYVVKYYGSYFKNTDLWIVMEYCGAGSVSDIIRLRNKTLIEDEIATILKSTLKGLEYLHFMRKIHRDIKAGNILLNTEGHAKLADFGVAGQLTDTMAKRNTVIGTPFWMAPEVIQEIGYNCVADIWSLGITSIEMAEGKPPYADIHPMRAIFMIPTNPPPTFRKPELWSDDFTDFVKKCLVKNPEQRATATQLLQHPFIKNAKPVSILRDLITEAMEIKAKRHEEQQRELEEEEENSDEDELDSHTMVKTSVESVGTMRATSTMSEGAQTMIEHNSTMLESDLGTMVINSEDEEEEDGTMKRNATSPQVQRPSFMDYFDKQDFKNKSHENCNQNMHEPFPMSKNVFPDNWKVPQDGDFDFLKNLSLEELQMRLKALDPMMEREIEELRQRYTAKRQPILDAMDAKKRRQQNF

c1cc2[nH]nc3c2c(n1)N(C1CCOCC1)CCC3 [Example 29, 6-(tetrahydro-2H-pyran-4-yl)-6,7,8,9-tetrahydro-2H-1,2,5,6-tetraazabenzo[cd]azulene]
percentage inhibition of PAK4 (PAK4): 7 percentage
percentage inhibition of CAMKKb (CAMKKb): 0 percentage
percentage inhibition of MST4 (MST4): 1 percentage
percentage inhibition of PKBb (PKBb): 0 percentage
percentage inhibition of AMPK(hum) (AMPK(hum)): 6 percentage
percentage inhibition of MST2 (MST2): 10 percentage
percentage inhibition of TBK1 (TBK1): 0 percentage
percentage inhibition of PKCz (PKCz): 0 percentage
percentage inhibition of TTK (TTK): 2 percentage

c1cc2[nH]nc3c2c(n1)N(C1CCC1)CCC3 [Example 22, 6-cyclobutyl-6,7,8,9-tetrahydro-2H-1,2,5,6-tetraazabenzo[cd]azulene]
percentage inhibition of PAK4 (PAK4): 6 percentage
percentage inhibition of CAMKKb (CAMKKb): 5 percentage
percentage inhibition of MST4 (MST4): 6 percentage
percentage inhibition of PKBb (PKBb): 0 percentage
percentage inhibition of AMPK(hum) (AMPK(hum)): 16 percentage
percentage inhibition of MST2 (MST2): 20 percentage
percentage inhibition of TBK1 (TBK1): 0 percentage
percentage inhibition of PKCz (PKCz): 0 percentage
percentage inhibition of TTK (TTK): 0 percentage

CN1CCC(N2Cc3ccccc3-c3n[nH]c4ccnc2c34)CC1 [Example 55]
percentage inhibition of PAK4 (PAK4): 20 percentage
percentage inhibition of CAMKKb (CAMKKb): 0 percentage
percentage inhibition of MST4 (MST4): 0 percentage
percentage inhibition of PKBb (PKBb): 10 percentage
percentage inhibition of AMPK(hum) (AMPK(hum)): 64 percentage
percentage inhibition of MST2 (MST2): 28 percentage
percentage inhibition of TBK1 (TBK1): 5 percentage
percentage inhibition of PKCz (PKCz): 0 percentage
percentage inhibition of TTK (TTK): 35 percentage

CC(C)n1ncc2c1CN(C1CCN(C)CC1)c1nccc3[nH]nc-2c13 [Example 68]
percentage inhibition of PAK4 (PAK4): 25 percentage
percentage inhibition of CAMKKb (CAMKKb): 0 percentage
percentage inhibition of MST4 (MST4): 0 percentage
percentage inhibition of PKBb (PKBb): 9 percentage
percentage inhibition of AMPK(hum) (AMPK(hum)): 32 percentage
percentage inhibition of MST2 (MST2): 2 percentage
percentage inhibition of TBK1 (TBK1): 5 percentage
percentage inhibition of PKCz (PKCz): 1 percentage
percentage inhibition of TTK (TTK): 2 percentage

c1cc2[nH]nc3c2c(n1)N(C1CCCC1)CCC3 [Example 23, 6-cyclopentyl-6,7,8,9-tetrahydro-2H-1,2,5,6-tetraazabenzo[cd]azulene]
percentage inhibition of PAK4 (PAK4): 0 percentage
percentage inhibition of CAMKKb (CAMKKb): 7 percentage
percentage inhibition of MST4 (MST4): 0 percentage
percentage inhibition of PKBb (PKBb): 0 percentage
percentage inhibition of MST2 (MST2): 0 percentage
percentage inhibition of TBK1 (TBK1): 0 percentage
percentage inhibition of PKCz (PKCz): 0 percentage
percentage inhibition of TTK (TTK): 0 percentage
